Patent publication US9334283B2, “CCR1 antagonists and methods of use thereof” (Millennium Pharmaceuticals, Inc., priority 2002, dated 2016)

How the values were obtained:
[1] = system: neutrophil recruitment in response to murine MIP-1α; assay: In vivo efficacy model: neutrophil recruitment in response to MIP-1α (MPO activity in skin biopsies); parameters: species or system guinea pig; settings: for oral bioavailability and efficacy in comparison to the Reference Example: guinea pig, comparison in words; for oral bioavailability and efficacy in comparison to the Reference Example / ED50: oral; for ED50: 30 minutes prior to intradermal murine MIP-1α (100 pmol/site), read-out: Efficacy: Guinea Pig Neutrophil Recruitment (ED50 (mg/kg))
Experimental: An animal model of neutrophil recruitment in response to MIP-1α was used to evaluate the biological/pharmacodynamic activity of the compounds. Compounds were administered to female Hartley guinea pigs orally (doses ranged from about 0.5 mg/kg to about 5.0 mg/kg) 30 minutes prior to intradermal injections of murine MIP-1α (100 pmol/site) or phosphate buffered saline (PBS). Skin punch biopsies were taken 5 hours later and processed for myeloperoxidase (MPO) measurements. MPO activity was used as an indicator for neutrophil recruitment to the injection site.

[2] = system: other G protein-coupled receptors and ion channels; assay: Selectivity on other G protein-coupled receptors and ion channels; settings: assayed on other G protein-coupled receptors and ion channels; comparison in words
[3] = target: T1, CCR1 (125I-MIP-1α binding to THP-1 cell membranes) (Homo sapiens, UniProt P32246); assay: THP-1 cell membrane 125I-MIP-1α binding assay; settings: 0.1 to 0.2 nM 125I-MIP-1α, 60 min at room temperature, read-out: Inhibition of 125I-MIP-1α Binding to THP-1 Cell Membranes (Ki (nM))
T1 construct: Membranes were prepared from THP-1 cells (ATCC. #TIB202); host or cells: THP-1 cells (membrane preparation)
T1 sequence (P32246 1-355): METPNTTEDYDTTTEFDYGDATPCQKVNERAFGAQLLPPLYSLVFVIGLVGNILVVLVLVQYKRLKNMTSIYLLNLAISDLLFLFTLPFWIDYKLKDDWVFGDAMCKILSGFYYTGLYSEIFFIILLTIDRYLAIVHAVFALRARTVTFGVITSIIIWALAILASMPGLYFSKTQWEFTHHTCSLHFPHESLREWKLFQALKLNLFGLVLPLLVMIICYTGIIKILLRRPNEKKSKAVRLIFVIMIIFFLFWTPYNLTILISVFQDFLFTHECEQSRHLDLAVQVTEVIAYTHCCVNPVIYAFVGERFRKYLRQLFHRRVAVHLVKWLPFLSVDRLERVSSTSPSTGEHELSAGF
Text: The activity of compounds of the present invention can be assessed using suitable assays, such as receptor binding assays or chemotaxis assays. For example, as described in the Examples, small molecule antagonists of […] binding have been identified utilizing THP-1 cells membranes. Specifically, a high through-put receptor binding assay, which monitors ^125I-MIP-1α binding to THP-1 cell membranes, was used to identify small molecule antagonists which block binding of MIP-1α. Compounds of the present invention can also be identified by virtue of their ability to inhibit the activation steps triggered by binding of a chemokine (e.g., CCL2 (MCP-1) CCL3 (MIP-1α), CCL4 (MIP-1β), CCL5 (RANTES), CCL7 (MCP-3), CCL8 (MCP-2), CCL13 (MCP-4), CCL14 (HCC-1), CCL15 (Lkn-1), CCL23 (MPIF-1)) to its receptor (CCR-1), such as chemotaxis, integrin activation and granule mediator release. They can also be identified by virtue of their ability to block chemokine (e.g., CCL2 (MCP-1) CCL3 (MIP-1α), CCL4 (MIP-1β), CCL5 (RANTES), CCL7 (MCP-3), CCL8 (MCP-2), CCL13 (MCP-4), CCL14 (HCC-1), CCL15 (Lkn-1), CCL23 (MPIF-1)) induced chemotaxis of, for example, HL-60 cells, T-cells, peripheral blood mononuclear cells or eosinophils.
Membranes were prepared from THP-1 cells (ATCC. #TIB202). Cells were harvested by centrifugation, washed twice with PBS (phosphate-buffered saline), and the cell pellets were frozen at −70 to −85° C. The frozen pellet was thawed in ice-cold lysis buffer consisting of 5 mM HEPES (N-2-hydroxyethylpiperazine-N′-2-ethane-sulfonic acid) pH 7.5, 2 mM EDTA (ethylenediaminetetraacetic acid), 5 μg/ml each aprotinin, leupeptin, and chymostatin (protease inhibitors), and 100 μg/ml PMSF (phenyl methane sulfonyl fluoride—also a protease inhibitor), at a concentration of 1 to 5×10^7 cells/ml. This procedure results in cell lysis. The suspension was mixed well to resuspend all of the frozen cell pellet. Nuclei and cell debris were removed by centrifugation of 400×g for 10 minutes at 4° C. The supernatant was transferred to a fresh tube and the membrane fragments were collected by centrifugation at 25,000×g for 30 minutes at 4° C. The supernatant was aspirated and the pellet was resuspended in freezing buffer consisting of 10 mM HEPES pH 7.5, 300 mM sucrose, 1 μg/ml each aprotinin, leupeptin, and chymostatin, and 10 μg/ml PMSF (approximately 0.1 ml per each 10^8 cells). All clumps were resolved using a minihomogenizer, and the total protein concentration was determined using a protein assay kit (Bio-Rad, Hercules, Calif., cat #500-0002). […]
Binding Assays utilized the membranes described above. […] The filters were rinsed with approximately 600 μl of binding buffer containing 0.5 M NaCl, dried, and the amount of bound radioactivity was determined by scintillation counting.

[4] = Cavia porcellus, Neutrophil, female Hartley guinea pigs, MPO at 5 hours

| Structure (SMILES) | inhibition at 2.5 mg/kg ([1]; Cavia porcellus, Neutrophil, at 2.5 mg/kg oral, female Hartley guinea pigs, intradermal murine MIP-1α, MPO at 5 hours, read-out: Efficacy: Guinea Pig Neutrophil Recruitment, % inhibition) | oral bioavailability and efficacy in comparison to the Reference Example [1] | selectivity compared to structurally related compounds [2] | Ki [3] | ED50 [1, 4] |
| --- | --- | --- | --- | --- | --- |
| CC1(C)CN(CC/C=C2/c3cc(C(=O)O)ccc3OCc3ncccc32)CCC1(O)c1ccc(Cl)cc1 (racemic) [Example 3, racemic-5-{3-[4-(4-Chloro-phenyl)-4-hydroxy-3,3-dimethyl-piperidin-1-yl]-propylidene}-5,11-dihydro-10-oxa-1-aza-dibenzo[a,d]cycloheptene-7-carboxylic acid] | 99% | greater oral bioavailability and efficacy | greater selectivity | 3 nM | – |
| CC1(C)CN(CCC=C2c3cc(C(=O)O)ccc3OCc3ncccc32)CC[C@]1(O)c1ccc(Cl)cc1 [Example 1, (S)-5-{3-[4-(4-Chloro-phenyl)-4-hydroxy-3,3-dimethyl-piperidin-1-yl]-propylidene}-5,11-dihydro-10-oxa-1-aza-dibenzo[a,d]cycloheptene-7-carboxylic acid] | – | greater oral bioavailability and efficacy | greater selectivity | 2.3 nM | 0.12 mg/kg |
| CC1(C)CN(CCC=C2c3cc(C(=O)O)ccc3OCc3ncccc32)CC[C@@]1(O)c1ccc(Cl)cc1 [Example 2, (R)-5-{3-[4-(4-Chloro-phenyl)-4-hydroxy-3,3-dimethyl-piperidin-1-yl]-propylidene}-5,11-dihydro-10-oxa-1-aza-dibenzo[a,d]cycloheptene-7-carboxylic acid] | – | – | – | > 1000 nM | – |
| O=C(O)c1ccc2c(c1)/C(=C/CCN1CCC(O)(c3ccc(Cl)cc3)CC1)c1cccnc1CO2 [Reference Example, reference compound] | – | – | – | 7.8 nM | 3.6 mg/kg |
